Assay results taken from article PMC10721329, “Quisinostat is a brain-penetrant radiosensitizer in glioblastoma” (JCI Insight, 2023).
“And” between values parts separate entries of the source, which are not always exact repeats. Equal entries are not always repeated.

What was measured:
GB126 cells = test: Annexin V / ViaDye Red flow cytometry (apoptosis); format: cell-based, human; settings: 86 nM QST
Source text: (§1) For apoptosis analysis, the Dead Cell Apoptosis Kit with Annexin V FITC and Propidium Iodide for Flow Cytometry (Thermo Fisher Scientific, V13242) was followed using the manufacturer instructions, with the exception that we employed ViaDye Red Fixable Viability Dye Kit (Cytek, SKU R7-60008) instead of propidium iodide to label necrotic cells. Samples were run on the AURORA 3L 24 color spectrum cytometers (Cytek), unmixed by SpectroFlo application, and analyzed with FlowJo 10.8.1 software (Beckton Dickinson). Recommended negative controls for flow cytometry include (1) no Annexin V FITC and no ViaDye Red, (2) Annexin V FITC alone, and (3) ViaDye Red alone. The following gating strategy was used: debris population was excluded as the subset of cells with low forward scatter in the forward scatter area versus side scatter area plot. After excluding the debris, cells were gated on the Annexin versus ViaDye Red log plot with the classification as live (Annexin V negative, ViaDye Red negative), early apoptotic (Annexin V positive, ViaDye Red negative), late apoptotic (Annexin V positive, ViaDye Red positive), or necrotic (Annexin V negative, ViaDye Red positive). The frequency of the different cell subsets was reported as frequency on the total cell population, excluding debris. […]

BT145 cells [1] = test: Annexin V / ViaDye Red flow cytometry (apoptosis); format: cell-based, human; settings: 75 nM QST
Source text: as §1

BT145 cells [2] = test: Intracellular uptake of QST and level in media, with or without washout (LC-MS/MS); format: cell-based, human
Procedure: To further understand the kinetics of drug-target engagement in GSCs, we harvested media and BT145 cells at 0, 2, 6, 10, and 24 hours with or without removal of QST (75 nM). At each time point, we measured the intracellular drug levels and concentrations in the cell media. With continuous drug exposure (no washout), the intracellular levels of QST in BT145 increased throughout the incubation period, reaching equilibrium by 10 hours (Supplemental Figure 2A). […] By contrast, in washout experiments (performed 2 hours after spiking cell media with the drug), minimal QST levels were measured intracellularly after drug removal at all time points (Supplemental Figure 2B).
QST concentrations in specimens were measured using reverse-phase LC on the AB SCIEX QTRAP6500+ LC-MS/MS system by operating electrospray in the positive ion mode. For liquid chromatographic separation, gradient elution was performed using a Phenomenex Kinetex F5 100 Å column (100 × 2.1 mm, 2.6 μm). The initial composition of the mobile phase was 70% phase A (0.1% formic acid in water) and 30% phase B (0.1% formic acid in 1:1 acetonitrile/methanol) with a 0.35 mL/min flow rate. Gradient elution was achieved as follows: mobile phase (B) was maintained at 30% from 0 to 0.3 minutes, increased to 95% from 0.3 to 0.8 minutes, maintained at 95% from 0.8 to 2.5 minutes, and decreased to 30% from 2.5 to 2.8 minutes. The total run time was 3.5 minutes. The internal standard used in this study was D8-infigratinib. The retention times for QST and D8-infigratinib were 1.6 and 1.8 minutes, respectively. Mass-to-charge ratio transitions were as follows: 395.20 → 144.00 (QST) and 568.08 → 321.00 (D8-infigratinib). LC-MS/MS analysis was performed using an Analyst 1.7 Chromatographic Data System. See Supplemental Methods for detailed PK experiments. […]
Cell Media and Lysate Sample Preparation
Cell media and lysates were thawed at room temperature. An aliquot of 20 µL of cell media or lysate was transferred into a micro centrifuge tube followed by protein precipitation with 60 µL of IS-containing methanol precipitation solution. The mixture was vortex-mixed for 10 s and centrifuged at 12000 g at 4 °C for 10 min. A 50-µL aliquot of the supernatant was transferred to an autosampler vial, and 5 µL was injected into the LC-MS/MS system for […]

orthotopic GB126 tumors = test: End-stage immunoblot of orthotopic GB126 tumors (H3K9/14ac, H3K27ac); format: in vivo, athymic nude mice; settings: endpoint PDX tumors, individual mice
Procedure: All mice included in the survival study were processed for end-point PK and PD analyses once moribund. Plasma, tumor, and contralateral brain tissues were harvested 3 hours after dosing with 10 mg/kg QST, allowing for direct comparison of long-term treatment with the PK-PD data collected from acute (1-week) treatment with QST or combination therapy (Figure 8A). […] There were no significant differences in total or unbound drug concentrations in tumor or brain tissue between the monotherapy or combination therapy cohorts (Figure 8, E and F). Immunoblot analysis of dissected tumor samples confirmed that QST induced substantial histone H3 hyperacetylation in brain tumors, compared with untreated animals, consistent with an in vivo on-target effect (Figure 9, A and B). […]
4). Protein concentrations from whole-cell extracts were determined using the Bradford Protein Assay (ThermoFisher Scientific). Equal amounts of protein (10-40 μg/lane) were loaded onto 10% or 12.5% sodium dodecyl sulfate–polyacrylamide gel electrophoresis gels and transferred to a polyvinylidene fluoride membrane (Millipore-Sigma).
Cellular protein from frozen tissue of non–tumor-bearing mouse brains, tumor-bearing mouse brains, and flank tumors were homogenized in a prechilled glass tissue grinder (VWR) with RIPA lysis buffer containing protease and phosphatase inhibitors (ThermoFisher Scientific), with 500 uL of RIPA buffer for 10 mg of tissue. Once homogenized, the tissue lysates were kept on ice for 30 minutes and vortexed every 10 minutes. The samples were then centrifuged at 15,000 rpm for 10 minutes at 4 °C to collect the protein lysates.
Membranes were blocked with 5% nonfat milk for 1 hour at room temperature and incubated overnight with primary antibody at 4 °C. Primary antibodies used were rabbit anti-p21 […]
Signaling Technologies, 9677), mouse anti-Histone H3 (1:1000, Cell Signaling 14269), mouse

[3] = representative plot, quadrant assigned by inference

**Q.** What does the source list for `Cn1cc(CNCC2CCN(c3ncc(C(=O)NO)cn3)CC2)c2ccccc21` [QST, quisinostat]?
**A.** Apoptotic, Annexin+ ViaDye - (%) (GB126 cells; replicates): 9.54% and 12.5% and 8.59%; Dead, Annexin+ ViaDye + (%) (GB126 cells; replicates): 12.7% and 14.5% and 9.91%; ViaDyeRed / Annexin V-FITC dot plot quadrant, live (Annexin-, ViaDye-) (GB126 cells; [3]): 71.9; ViaDyeRed / Annexin V-FITC dot plot quadrant, necrotic (Annexin-, ViaDye+) (GB126 cells; [3]): 5.85; Apoptotic, Annexin+ ViaDye - (%) (BT145 cells [1]; replicates): 60% and 53.4% and 59.8%; Dead, Annexin+ ViaDye + (%) (BT145 cells [1]; replicates): 5.66% and 6.66% and 4.49%; ViaDyeRed / Annexin V-FITC dot plot quadrant, live (Annexin-, ViaDye-) (BT145 cells [1]; [3]): 39.3; ViaDyeRed / Annexin V-FITC dot plot quadrant, necrotic (Annexin-, ViaDye+) (BT145 cells [1]; [3]): 0.65; time to equilibrium of intracellular QST level (BT145 cells [2]; BT145, 75 nM QST, continuous exposure): ≤ 10 h; Average Cell uptake (BT145 cells [2]; no washout, 2 hrs): 7.31 nmol/g protein; Media (BT145 cells [2]; no washout, 2 hrs): 62.85 nM; Media at cell collection (BT145 cells [2]; no washout, 2 hrs): 52.25 nM; Average Cell uptake (BT145 cells [2]; no washout, 6 hrs): 10.61 nmol/g protein; Media (BT145 cells [2]; no washout, 6 hrs): 67.45 nM; Media at cell collection (BT145 cells [2]; no washout, 6 hrs): 45.30 nM; Average Cell uptake (BT145 cells [2]; no washout, 10 hrs): 11.62 nmol/g protein; Media (BT145 cells [2]; no washout, 10 hrs): 65.15 nM; Media at cell collection (BT145 cells [2]; no washout, 10 hrs): 39.70 nM; Average Cell uptake (BT145 cells [2]; no washout, 24 hrs): 11.78 nmol/g protein; Media (BT145 cells [2]; no washout, 24 hrs): 64.10 nM; Media at cell collection (BT145 cells [2]; no washout, 24 hrs): 30.75 nM; Average Cell uptake (BT145 cells [2]; with washout, 0 hrs): 7.31 nmol/g protein; Media (BT145 cells [2]; with washout, 0 hrs): 62.85 nM; Media at cell collection (BT145 cells [2]; with washout, 0 hrs): 52.25 nM; Average Cell uptake (BT145 cells [2]; with washout, 2 hrs): 2.58 nmol/g protein; Media (BT145 cells [2]; with washout, 2 hrs): 64.35 nM; Media at cell collection (BT145 cells [2]; with washout, 2 hrs): 3.665 nM; Average Cell uptake (BT145 cells [2]; with washout, 6 hrs): 3.23 nmol/g protein; Media (BT145 cells [2]; with washout, 6 hrs): 63.40 nM; Media at cell collection (BT145 cells [2]; with washout, 6 hrs): 5.31 nM; Average Cell uptake (BT145 cells [2]; with washout, 10 hrs): 2.72 nmol/g protein; Media (BT145 cells [2]; with washout, 10 hrs): 66.40 nM; Media at cell collection (BT145 cells [2]; with washout, 10 hrs): 5.605 nM; Average Cell uptake (BT145 cells [2]; with washout, 24 hrs): 3.95 nmol/g protein; Media (BT145 cells [2]; with washout, 24 hrs): 58.55 nM; Media at cell collection (BT145 cells [2]; with washout, 24 hrs): 3.57 nM; H3K9/14ac levels normalized to B-actin (orthotopic GB126 tumors; QST + IR): 7.331 fold change and 7.39 fold change and 6.951 fold change; H3K27ac levels normalized to B-actin (orthotopic GB126 tumors; QST + IR): 1.842 fold change and 4.36 fold change and 3.819 fold change; H3K9/14ac levels normalized to B-actin (orthotopic GB126 tumors; QST): 5.4 fold change and 6.4803 fold change and 5.818 fold change; H3K27ac levels normalized to B-actin (orthotopic GB126 tumors; QST): 4.65 fold change and 3.97 fold change and 2.306 fold change
